Laboratory results: PubChem BioAssay AID330 (DTP/NCI, 2004)
Several values for one entry are separate records, joined by “and”; a condition that tells them apart may be missing. Equal entries are not always repeated. Toxic doses and inconclusive results are not listed.

System: P388 leukemia ip, CD2F1 mice, survival T/C
Assay: NCI In Vivo Anticancer Drug Screen. Data for tumor model P388 Leukemia (intraperitoneal) in CD2F1 (CDF1) mice
Conditions: endpoint: median survival time, higher = longer survival
Procedure, shortened: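 Mice carrying the transplanted tumor received test compound or vehicle. Survival was recorded in each group, and the value is the treated-group measurement divided by that of the vehicle-treated control group.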

[1] = dose: 50.0 mg/kg/injection, schedule: Q01DX005 (ip), vehicle: Klucel (hydroxypropylcellulose) (HPC)
[2] = dose: 100.0 mg/kg/injection, schedule: Q01DX005 (ip), vehicle: Klucel (hydroxypropylcellulose) (HPC)
[3] = dose: 200.0 mg/kg/injection, schedule: Q01DX005 (ip), vehicle: Klucel (hydroxypropylcellulose) (HPC)
[4] = dose: 50.0 mg/kg/injection, schedule: Q01DX005 (ip), vehicle: saline with Tween-80
[5] = dose: 100.0 mg/kg/injection, schedule: Q01DX005 (ip), vehicle: saline with Tween-80
[6] = dose: 100.0 mg/kg/injection, schedule: Q01DX009 (ip), vehicle: saline with Tween-80
[7] = dose: 200.0 mg/kg/injection, schedule: Q01DX009 (ip), vehicle: saline with Tween-80

## COCCOCCOCCOCCOCCOCCOCCOCCOCCOCCOCCOCCOCCOCCOC(=O)CCn1cc(F)c(=O)[nH]c1=O
dose: 34.0 mg/kg/injection, schedule: Q04DX002 (ip), vehicle: saline
  T/C: 97 % of control
dose: 68.0 mg/kg/injection, schedule: Q04DX002 (ip), vehicle: saline
  T/C: 111 % of control
dose: 136.0 mg/kg/injection, schedule: Q04DX002 (ip), vehicle: saline
  T/C: 102 % of control
dose: 272.0 mg/kg/injection, schedule: Q04DX002 (ip), vehicle: saline
  T/C: 100 % of control

## CCOP(=S)(N/N=C/c1c(CO)cnc(C)c1O)OCC
[1]
  T/C: 98 % of control
[2]
  T/C: 102 % of control
[3]
  T/C: 101 % of control

## C[Si](C)(C)/C=C1\OC=CC(c2ccccc2)O1 (configuration not stated)
dose: 100.0 mg/kg/injection, schedule: Q01DX001 (ip), vehicle: saline with Tween-80
  T/C: 99 % of control
dose: 200.0 mg/kg/injection, schedule: Q01DX001 (ip), vehicle: saline with Tween-80
  T/C: 100 % of control
dose: 400.0 mg/kg/injection, schedule: Q01DX001 (ip), vehicle: saline with Tween-80
  T/C: 103 % of control

## COc1cccc(Nc2ncnc3c2c(=O)n(C)c(=O)n3C)c1
dose: 25.0 mg/kg/injection, schedule: Q01DX005 (ip), vehicle: saline with Tween-80
  T/C: 91 % of control
[4]
  T/C: 87 % of control
[5]
  T/C: 87 % of control

## Nc1nc(I)c2ncn(C3OC(CO)C(O)C3O)c2n1 (configuration not stated)
[4]
  T/C: 98 % of control
[5]
  T/C: 92 % of control
dose: 200.0 mg/kg/injection, schedule: Q01DX005 (ip), vehicle: saline with Tween-80
  T/C: 96 % of control

## CSC(=S)/N=c1\ccccn1C
dose: 25.0 mg/kg/injection, schedule: Q04DX002 (ip), vehicle: saline with Tween-80
  T/C: 102 % of control
dose: 50.0 mg/kg/injection, schedule: Q04DX002 (ip), vehicle: saline with Tween-80
  T/C: 99 % of control
dose: 100.0 mg/kg/injection, schedule: Q04DX002 (ip), vehicle: saline with Tween-80
  T/C: 102 % of control

## COC(=O)C1C(=O)C2OC1C1OC(C)(C)OC21 (configuration not stated)
[1]
  T/C: 94 % of control
[2]
  T/C: 103 % of control
[3]
  T/C: 104 % of control

## CC1/C(=N\N=C(N)N)c2ccccc2/C1=N/N=C(N)N (configuration not stated)
dose: 25.0 mg/kg/injection, schedule: Q01DX001 (ip), vehicle: saline
  T/C: 106 % of control
dose: 50.0 mg/kg/injection, schedule: Q01DX001 (ip), vehicle: saline
  T/C: 102 % of control
dose: 100.0 mg/kg/injection, schedule: Q01DX001 (ip), vehicle: saline
  T/C: 99 % of control

## COC(=O)C1c2cc(OC)c(OC)cc2C(=O)N2CCc3cc4c(cc3C12)OCO4 (configuration not stated)
dose: 50.0 mg/kg/injection, schedule: Q04DX003 (ip), vehicle: distilled water + Tween-80
  T/C: 100 % of control and 101 % of control
dose: 100.0 mg/kg/injection, schedule: Q04DX003 (ip), vehicle: distilled water + Tween-80
  T/C: 99 % of control and 105 % of control
dose: 200.0 mg/kg/injection, schedule: Q04DX003 (ip), vehicle: distilled water + Tween-80
  T/C: 97 % of control and 101 % of control
dose: 400.0 mg/kg/injection, schedule: Q04DX003 (ip), vehicle: distilled water + Tween-80
  T/C: 104 % of control and 100 % of control

## CC(C)Cc1c[nH]c(=O)[nH]c1=O
[6]
  T/C: 95 % of control
[7]
  T/C: 95 % of control
dose: 400.0 mg/kg/injection, schedule: Q01DX009 (ip), vehicle: saline with Tween-80
  T/C: 91 % of control

## CCc1nc(N)nc(N)c1-c1ccc(OC)c([N+](=O)[O-])c1
dose: 120.0 mg/kg/injection, schedule: Q01DX005 (ip), vehicle: saline with Tween-80
  T/C: 151 % of control and 189 % of control
dose: 480.0 mg/kg/injection, schedule: Q01DX005 (ip), vehicle: saline with Tween-80
  T/C: 90 % of control

## CC(=O)C(C)OP(=O)(O)OCC[N+](C)(C)C (configuration not stated)
dose: 12.5 mg/kg/injection, schedule: Q01DX009 (ip), vehicle: saline
  T/C: 100 % of control
dose: 25.0 mg/kg/injection, schedule: Q01DX009 (ip), vehicle: saline
  T/C: 104 % of control
dose: 50.0 mg/kg/injection, schedule: Q01DX009 (ip), vehicle: saline
  T/C: 114 % of control

## CCOC(=O)c1cnc2cc3c(cc2c1Nc1cccc(C(F)(F)F)c1)OCO3
dose: 60.0 mg/kg/injection, schedule: Q01DX005 (ip), vehicle: Klucel (hydroxypropylcellulose) (HPC)
  T/C: 96 % of control
dose: 120.0 mg/kg/injection, schedule: Q01DX005 (ip), vehicle: Klucel (hydroxypropylcellulose) (HPC)
  T/C: 102 % of control
dose: 240.0 mg/kg/injection, schedule: Q01DX005 (ip), vehicle: Klucel (hydroxypropylcellulose) (HPC)
  T/C: 101 % of control

## Cc1cc(Cl)ccc1N=Cc1ccc(OCc2ccccc2)cc1
dose: 50.0 mg/kg/injection, schedule: Q01DX009 (ip), vehicle: saline with Tween-80
  T/C: 92 % of control
[6]
  T/C: 90 % of control
[7]
  T/C: 88 % of control

## CN(C)[C@@H]1C(=O)C(C(N)=O)=C(O)[C@]2(O)C(=O)C3C(=O)c4c(O)ccc(Cl)c4[C@](C)(O)[C@H]3C[C@@H]12 (some centres not stated)
dose: 8.8 mg/kg/injection, schedule: Q01DX009 (ip), vehicle: saline with Tween-80
  T/C: 109 % of control
dose: 13.3 mg/kg/injection, schedule: Q01DX009 (ip), vehicle: saline with Tween-80
  T/C: 100 % of control
dose: 20.0 mg/kg/injection, schedule: Q01DX009 (ip), vehicle: saline with Tween-80
  T/C: 109 % of control
dose: 30.0 mg/kg/injection, schedule: Q01DX009 (ip), vehicle: saline with Tween-80
  T/C: 118 % of control
